From patent publication US20100204230A1, “PIPERAZINE DERIVATIVES FOR TREATMENT OF AD AND RELATED CONDITIONS” (priority 2007, published 2010) come the findings set out here.

SMILES strings stand for the structures. pIC50: −log10 of the molar value.

The target in the assay is T1, γ-secretase (Aβ(1-42) production in SH-SY5Y neuroblastoma cells overexpressing SPA4CT) (Homo sapiens, UniProt P49768).
T1 construct: Human SH-SY5Y neuroblastoma cells overexpressing the direct 7-secretase substrate SPA4CT; endogenous in cells; host or cells: Human SH-SY5Y neuroblastoma cells (stably overexpressing the substrate SPA4CT, induced with sodium butyrate)
Briefly: Cell-based γ-secretase assay, Aβ(1-42) inhibition. Conditions: overnight incubation, Meso Scale detection of Aβ(42). The protocol: Cell-Based γ-Secretase Assay
Human SH-SY5Y neuroblastoma cells overexpressing the direct 7-secretase substrate SPA4CT were induced with sodium butyrate (10 mM) for 4 hours prior to plating. Cells were plated at 35,000 cells/well/100 μl in 96-well plates in phenol red-free MEM/10% FBS, 50 mM HEPES, 1% Glutamine and incubated for 2 hrs at 37° C., 5% CO2.
Compounds for testing were diluted into Me2SO to give a ten point dose-response curve. Typically 10 μl of these diluted compounds in Me2SO were further diluted into 182 μl dilution buffer (phenol red-free MEM/10% FBS, 50 mM HEPES, 1% Glutamine) and 10 μl of each dilution was added to the cells in 96-well plates (yielding a final Me2SO concentration of 0.5%). Appropriate vehicle and inhibitor controls were used to determine the window of the assay.
After incubation overnight at 37° C., 5% CO2, 25 μl and 50 μl media were transferred into a standard Meso avidin-coated 96-well plate for detection of Aβ(40) and Aβ(42) peptides, respectively. 25 μl Meso Assay buffer (PBS, 2% BSA, 0.2% Tween-20) was added to the Aβ(40) wells followed by the addition of 25 μl of the respective antibody premixes to the wells: • Aβ(40) premix: 1 μg/ml ruthenylated G2-10 antibody, 4 μg/ml biotinylated 4G8 antibody diluted in Origen buffer • Aβ(42) premix: 1 μg/ml ruthenylated G2-11 antibody, 4 μg/ml biotinylated 4G8 antibody diluted in Origen buffer
(Biotinylated 4G8 antibody supplied by Signet Pathology Ltd; G2-10 and G2-11 antibodies supplied by Chemicon)
After overnight incubation of the assay plates on a shaker at 4° C., the Meso Scale Sector 6000 Imager was calibrated according to the manufacturer's instructions. After washing the plates 3 times with 150 μl of PBS per well, 150 μl Meso Scale Discovery read buffer was added to each well and the plates were read on the Sector 6000 Imager according to the manufacturer's instructions.
LD50 and IC50 values for inhibition of Aβ(40) and Aβ(42) were calculated by nonlinear regression fit analysis using the appropriate software (eg. Excel fit). The total signal and the background were defined by the corresponding Me2SO and inhibitor controls.

One may read the pIC50 as the negative decadic logarithm of the IC50, by convention in mol/L. A higher pIC50 goes with a small IC50.

In turn, `CCN(CC)c1ccc(Nc2nc(N3CCN(c4ccc(OC)cc4)C(C)(C)C3)ncc2OC)c(C)c1` [Example 25, N4,N4-diethyl-N1-{5-methoxy-2-[4-(4-methoxyphenyl)-3,3-dimethylpiperazin-1-yl]pyrimidin-4-yl}-2-methylbenzene-1,4-diamine] showed a pIC50 of more than 6.30.

On to `COc1ccc(N2CCN(c3nc(Nc4cc(C(C)(C)C)ccc4C)cc(C(=O)N(C)CCN(C)C)n3)CC2(C)C)cc1` [Example 93, 6-[(5-tert-butyl-2-methylphenyl)amino]-N-[2-(dimethylamino)ethyl]-2-[4-(4-methoxyphenyl)-3,3-dimethylpiperazin-1-yl]-N-methylpyrimidine-4-carboxamide], for which the pIC50 is more than 6.30.

The compound `CCN(CC)c1ccc(Nc2nc(N3CCN(c4ccc(OC)cc4)C(C)(C)C3)ncc2C)c(C)c1` [Example 14, N4,N4-diethyl-N1-{2-[4-(4-methoxyphenyl)-3,3-dimethylpiperazin-1-yl]-5-methylpyrimidin-4-yl}-2-methylbenzene-1,4-diamine] had a pIC50 of more than 6.30.

`COc1ccc(N2CCN(c3nccc(Nc4ccc(-n5cccn5)cc4C)n3)CC2(C)C)cc1` [Example 41, 2-[4-(4-methoxyphenyl)-3,3-dimethylpiperazin-1-yl]-N-[2-methyl-4-(1H-pyrazol-1-yl)phenyl]pyrimidin-4-amine]: the pIC50 was 6.00 to 6.30.

In turn, `CCN(CC)c1ccc(Nc2ccnc(N3CCN(c4ccc(OC)cc4)CC3)n2)c(C)c1` [Example 3, N,N-Diethyl-N-{2-[4-(4-methoxy-phenyl)-piperazin-1-yl]-pyrimidin-4-yl}-2-methyl-benzene-1,4-diamine] had a pIC50 of 5.52 to 6.00.

With `CCN(CC)c1ccc(Nc2nc(N3CCN(c4ccc(OC)cc4)C(C)(C)C3)ncc2Cl)c(C)c1` [Example 19, N1-{5-chloro-2-[4-(4-methoxyphenyl)-3,3-dimethylpiperazin-1-yl]pyrimidin-4-yl}-N4,N4-diethyl-2-methylbenzene-1,4-diamine], the pIC50 is 6.00 to 6.30.

The compound `CCN(CC)c1ccc(Nc2nc(N3CCN(c4ccc(OC)cc4)C(C)(C)C3)ncc2F)c(C)c1` [Example 18, N4,N4-diethyl-N1--{5-fluoro-2-[4-(4-methoxyphenyl)-3,3-dimethylpiperazin-1-yl]pyrimidin-4-yl}-2-methylbenzene-1,4-diamine] showed a pIC50 of more than 6.30.

For the compound `COc1ccc(N2CCN(c3ncc(F)c(Nc4cc(C(C)(C)C)ccc4C)n3)CC2(C)C)cc1` [Example 8], the pIC50 was 6.00 to 6.30.

`COc1ccc(N2CCN(c3ncc(F)c(Nc4cc(C(C)(C)C)ccc4C)n3)CC2(C)C)cc1F` [Example 88, N-(5-tert-butyl-2-methylphenyl)-5-fluoro-2-[4-(3-fluoro-4-methoxyphenyl)-3,3-dimethylpiperazin-1-yl]pyrimidin-4-amine] showed a pIC50 of 6.00 to 6.30.

Take `CCCCc1ccc(Nc2ccnc(N3CCN(c4ccc(OC)cc4)C(C)(C)C3)n2)c(C)c1` [Example 44, N-(4-butyl-2-methylphenyl)-2-[4-(4-methoxyphenyl)-3,3-dimethylpiperazin-1-yl]pyrimidin-4-amine]: the pIC50 was 5.52 to 6.00.

In the case of `CCOc1cc(C)c(Nc2cc(C(=O)OC)nc(N3CCN(c4ccc(OC)cc4)C(C)(C)C3)n2)cc1C(C)C` [Example 28, 6-[(4-ethoxy-5-isopropyl-2-methylphenyl)amino]-2-[4-(4-methoxyphenyl)-3,3-dimethylpiperazin-1-yl]pyrimidine-4-carboxylate methyl], the pIC50 was more than 6.30.

As to `CCN(CC)c1ccc(Nc2ccnc(N3CCN(c4ccc(OC)c(OC)c4)CC3)n2)c(C)c1` [Example 24, N1-{2-[4-(3,4-dimethoxyphenyl)piperazin-1-yl]pyrimidin-4-yl}-N4,N4-diethyl-2-methylbenzene-1,4-diamine], the pIC50 is 5.52 to 6.00.

For `CCN(CC)c1ccc(Nc2nc(N3CCN(c4ccc(OC)cc4)C(C)(C)C3)ncc2Br)c(C)c1` [Example 20, N1-{5-bromo-2-[4-(4-methoxyphenyl)-3,3-dimethylpiperazin-1-yl]pyrimidin-4-yl}-N4,N4-diethyl-2-methylbenzene-1,4-diamine], the pIC50 was 6.00 to 6.30.

In turn, `CCN(CC)c1cc(C)c(Nc2ccnc(N3CCN(c4ccc(OC)cc4)C(C)(C)C3)n2)cc1C` [Example 16, N4,N4-diethyl-N1-{2-[4-(4-methoxyphenyl)-3,3-dimethylpiperazin-1-yl]pyrimidin-4-yl}-2,5-dimethylbenzene-1,4-diamine] had a pIC50 of more than 6.30.

With `CCN(CC)c1ccc(Nc2ccnc(N3CCN(c4ccc(OC)nc4)CC3)n2)c(C)c1` [Example 5], the pIC50 is 5.52 to 6.00.

On to `CCN(CC)c1ccc(Nc2cc(C)nc(N3CCN(c4ccc(OC)cc4)C(C)(C)C3)n2)c(C)c1` [Example 15, N4,N4-diethyl-N1-{2-[4-(4-methoxyphenyl)-3,3-dimethylpiperazin-1-yl]-6-methylpyrimidin-4-yl}-2-methylbenzene-1,4-diamine], for which the pIC50 was 6.00 to 6.30.

`COc1ccc(N2CCN(c3nccc(Nc4cc(OC)ccc4C)n3)CC2(C)C)cc1` [Example 11, N-(5-methoxy-2-methylphenyl)-2-[4-(4-methoxyphenyl)-3,3-dimethylpiperazin-1-yl]pyrimidin-4-amine]: the pIC50 is 5.52 to 6.00.

For `CCN(CC)c1ccc(Nc2cc(C(=O)N(C)C)nc(N3CCN(c4ccc(OC)cc4)C(C)(C)C3)n2)c(C)c1` [Example 27, 6-{[4-(diethylamino)-2-methylphenyl]amino}-2-[4-(4-methoxyphenyl)-3,3-dimethylpiperazin-1-yl]-N,N-dimethylpyrimidine-4-carboxamide], the pIC50 is more than 6.30.

`COc1ccc(N2CCN(c3nccc(Nc4cc(C(C)(C)C)nn4C)n3)CC2(C)C)cc1` [Example 37, N-(3-tert-butyl-1-methyl-1H-pyrazol-5-yl)-2-[4-(4-methoxyphenyl)-3,3-dimethylpiperazin-1-yl]pyrimidin-4-amine] showed a pIC50 of more than 6.30.

`CCOc1cc(C)c(Nc2ccnc(N3CCN(c4ccc(OC)cc4)C(C)(C)C3)n2)cc1C(C)C` [Example 45, N-(4-ethoxy-5-isopropyl-2-methylphenyl)-2-[4-(4-methoxyphenyl)-3,3-dimethylpiperazin-1-yl]pyrimidin-4-amine]: the pIC50 is more than 6.30.

As for `CCN(CC)c1ccc(Nc2cc(C(=O)O)nc(N3CCN(c4ccc(OC)cc4)C(C)(C)C3)n2)c(C)c1` [Example 26, 6-[[4-(diethylamino)-2-methylphenyl]amino]-2-[4-(4-methoxyphenyl)-3,3-dimethyl-1-piperazinyl]-4-pyrimidinecarboxylic acid], the negative logarithm of the IC50 (pIC50) was 6.00 to 6.30.

With `COc1ccc(N2CCN(c3nccc(Nc4ccc(N5CCC5)cc4C)n3)CC2(C)C)cc1` [Example 43, N-(4-azetidin-1-yl-2-methylphenyl)-2-[4-(4-methoxyphenyl)-3,3-dimethylpiperazin-1-yl]pyrimidin-4-amine], the pIC50 is 6.00 to 6.30.

Compound `CCN(CC)c1ccc(Nc2cc(C(=O)OC)nc(N3CCN(c4ccc(OC)cc4)C(C)(C)C3)n2)c(C)c1` [Example 22, methyl 6-{[4-(diethylamino)-2-methylphenyl]amino}-2-[4-(4-methoxyphenyl)-3,3-dimethylpiperazin-1-yl]pyrimidine-4-carboxylate] gave a pIC50 of more than 6.30.

As for `COc1ccc(N2CCN(c3ncc(F)c(Nc4cc(C(C)(C)C)nn4C)n3)CC2(C)C)cc1` [Example 38, N-(3-tert-butyl-1-methyl-1H-pyrazol-5-yl)-5-fluoro-2-[4-(4-methoxyphenyl)-3,3-dimethylpiperazin-1-yl]pyrimidin-4-amine], the pIC50 is more than 6.30.

Compound `CCN(CC)c1ccc(Nc2ccnc(N3CCN(c4ccc(OC)cc4)C(C)C3)n2)c(C)c1` (stereo not shown) [Example 10, N4,N4-diethyl-N1-{2-[4-(4-methoxyphenyl)-3-methylpiperazin-1-yl]pyrimidin-4-yl}-2-methylbenzene-1,4-diamine] showed a pIC50 of 6.00 to 6.30.
